Measurements from BindingDB's records for doi:10.1021/np500581m (Institute of Microbial Chemistry (Bikaken), 2015).

Experiment: Induction of p53-dependent growth suppression of human LNZTA3 cells after 72 hrs by MTT assay

Row | IC50 | Compound
1 | 6.2 µM | CCCCC[C@H](O[C@@H]1O[C@@H]([C@H](O)CO)[C@H](O)[C@H]1OC(C)=O)c1c(O)cc2c(c1O)C(=O)c1c(O)cc(O)cc1C2=O
2 | 6.2 µM | CCCCC[C@H](O[C@@H]1O[C@@H]([C@H](O)CO)[C@H](O)[C@H]1O)c1c(O)cc2c(c1O)C(=O)c1c(O)cc(O)cc1C2=O
